This is an account of results in article PMC4503722, “Novel Phenotypic Outcomes Identified for a Public Collection of Approved Drugs from a Publicly Accessible Panel of Assays” (PLoS ONE, 2015).

Experiment [1] relates to RKO. In words: cells. The format is cell-based.
The subject of experiment [2] is HCT116 cells treated with a GSK3β inhibitor. In words: cells. The format is cell-based.
Experiment [3] has as its system DLD-1. Kind of experiment: cells. The format is cell-based.
The subject of experiment [4] is HCT116. Kind of experiment: cells. The settings on record: basal. The format is cell-based.
The test system of experiment [5] is HT-29. In words: cells. The format is cell-based.
In experiment [6] the test system is SW480. In words: cells. The format is cell-based.
Experiment [7] relates to ECFC/ADSC co-culture cell nuclei number.
For experiment [8], the system named is Colo320. In words: cells. The format is cell-based.
The subject of experiment [9] is endothelial tube formation in co-cultures of ECFCs and ADSCs treated with VEGF. In words: cells. The format is cell-based, human.
Experiment [10] has as its system SNU-C1. In words: cells. The format is cell-based.
[11] abbreviates: assay number 26, GSK3b inhibitor pretreated.

For `CCCCC(CC)COC(=O)CC(C(=O)OCC(CC)CCCC)S(=O)(=O)O` (stereo not drawn) [NCGC00164140-07], the IC50 (in general, the point on the concentration scale where inhibition reaches its midpoint) is above 20 µM in experiment [1] (assay number 29, basal, read-out: Basal_Viability ATP RKO summarized IC50); 16.6 µM in experiment [2] (assay number 26, GSK3b inhibitor pretreated, read-out: GSK3b inh pretreated_Viability ATP HCT116 summarized IC50); above 20 µM in [3] (assay number 23, basal, read-out: Basal_Viability ATP DLD-1 summarized IC50); above 20 µM in experiment [4] (assay number 25, read-out: Basal_Viability ATP HCT116 summarized IC50); above 20 µM in experiment [5] (assay number 28, basal, read-out: Basal_Viability ATP HT-29 summarized IC50); above 20 µM in experiment [6] (assay number 24, basal, read-out: Basal_Viability ATP SW480 summarized IC50). The IC50 is above 10 µM in [7] (read-out: VEGF_ADSC\ECFC Angio Hoechst NucArea summarized IC50); above 20 µM in experiment [8] (assay number 27, basal, read-out: Basal_Viability ATP Colo 320 summarized IC50); above 10 µM in experiment [9] (read-out: VEGF_ADSC\ECFC Angio CD31 TubeArea summarized IC50); above 20 µM in experiment [10] (assay number 30, basal, read-out: Basal_Viability ATP SNU-C1 summarized IC50).

With `CO[C@H]1O[C@@H]2O[C@@]3(C)CC[C@H]4[C@H](C)CC[C@@H]([C@H]1C)[C@@]24OO3` [NCGC00164591-04], in [1] (assay number 29, basal), the “Basal_Viability ATP RKO IC50/EC50” value was above 20 µM. Also, in experiment [2] (setting [11]), the “GSK3b inh pretreated_Viability ATP HCT116 IC50/EC50” value is given as above 20 µM. Moreover, the “Basal_Viability ATP DLD-1 IC50/EC50” value in experiment [3] (assay number 23, basal) is above 20 µM. Besides, the “Basal_Viability ATP HCT116 IC50/EC50” value in experiment [4] (assay number 25) is recorded as above 20 µM. Further, the “Basal_Viability ATP HT-29 IC50/EC50” value in [5] (assay number 28, basal) is reported as above 20 µM. The “Basal_Viability ATP SW480 IC50/EC50” value in experiment [6] (assay number 24, basal) is reported as above 20 µM. In addition, the “VEGF_ADSC\ECFC Angio Hoechst NucArea IC50/EC50” value in experiment [7] is reported as above 10 µM. Further, the “Basal_Viability ATP Colo 320 IC50/EC50” value in experiment [8] (assay number 27, basal) is on record as above 20 µM. In addition, the “VEGF_ADSC\ECFC Angio CD31 TubeArea IC50/EC50” value in experiment [9] is listed as above 10 µM. Also, in experiment [10] (assay number 30, basal), the “Basal_Viability ATP SNU-C1 IC50/EC50” value is on record as above 20 µM.

Consider `Cl.NC1=NCC2c3ccccc3Cc3ccccc3N12` (stereo not drawn) [NCGC00165791-04], for which, in experiment [1] (assay number 29, basal), the “Basal_Viability ATP RKO IC50/EC50” value is above 20 µM. The “GSK3b inh pretreated_Viability ATP HCT116 IC50/EC50” value in experiment [2] (setting [11]) is above 20 µM. Further, in experiment [3] (assay number 23, basal), the “Basal_Viability ATP DLD-1 IC50/EC50” value is reported as above 20 µM. In addition, the “Basal_Viability ATP HCT116 IC50/EC50” value in experiment [4] (assay number 25) was above 20 µM. The “Basal_Viability ATP HT-29 IC50/EC50” value in experiment [5] (assay number 28, basal) is listed as above 20 µM. Further, the “Basal_Viability ATP SW480 IC50/EC50” value in [6] (assay number 24, basal) is on record as above 20 µM. In addition, the “VEGF_ADSC\ECFC Angio Hoechst NucArea IC50/EC50” value in experiment [7] is recorded as above 10 µM. In experiment [8] (assay number 27, basal), the “Basal_Viability ATP Colo 320 IC50/EC50” value was above 20 µM. For the same molecule, in experiment [9], the “VEGF_ADSC\ECFC Angio CD31 TubeArea IC50/EC50” value was above 10 µM. Moreover, the “Basal_Viability ATP SNU-C1 IC50/EC50” value in experiment [10] (assay number 30, basal) is on record as above 20 µM.

As to `CCN(CC)C(=O)c1cccnc1` [NCGC00166026-02], the “Basal_Viability ATP RKO IC50/EC50” value in experiment [1] (assay number 29, basal) was above 20 µM. Moreover, the “GSK3b inh pretreated_Viability ATP HCT116 IC50/EC50” value in experiment [2] (setting [11]) is listed as above 20 µM. In experiment [3] (assay number 23, basal), the “Basal_Viability ATP DLD-1 IC50/EC50” value is above 20 µM. The “Basal_Viability ATP HCT116 IC50/EC50” value in experiment [4] (assay number 25) is above 20 µM. In [5] (assay number 28, basal), the “Basal_Viability ATP HT-29 IC50/EC50” value is above 20 µM. The “Basal_Viability ATP SW480 IC50/EC50” value in [6] (assay number 24, basal) was above 20 µM. Further, the “VEGF_ADSC\ECFC Angio Hoechst NucArea IC50/EC50” value in [7] was above 10 µM. The “Basal_Viability ATP Colo 320 IC50/EC50” value in experiment [8] (assay number 27, basal) is above 20 µM. Further, the “VEGF_ADSC\ECFC Angio CD31 TubeArea IC50/EC50” value in [9] was above 10 µM. The “Basal_Viability ATP SNU-C1 IC50/EC50” value in experiment [10] (assay number 30, basal) is on record as above 20 µM.

For `CCCCCCCCCCCCCCCCCC[N+](C)(C)CCC[Si](OC)(OC)OC.[Cl-]` [NCGC00166112-02], the “Basal_Viability ATP RKO IC50/EC50” value in [1] (assay number 29, concentration response) is recorded as above 20 µM. Further, in experiment [2] (assay number 26, GSK3b inhibitor pretreated, concentration response), the “GSK3b inh pretreated_Viability ATP HCT116 IC50/EC50” value was above 20 µM. In experiment [3] (assay number 23, concentration response), the “Basal_Viability ATP DLD-1 IC50/EC50” value was above 20 µM. Besides, the “Basal_Viability ATP HCT116 IC50/EC50” value in [4] (assay number 25, concentration response) is reported as above 20 µM. For the same molecule, in experiment [5] (assay number 28, concentration response), the “Basal_Viability ATP HT-29 IC50/EC50” value was above 20 µM. Besides, in experiment [6] (assay number 24, concentration response), the “Basal_Viability ATP SW480 IC50/EC50” value is listed as above 20 µM. Moreover, the “VEGF_ADSC\ECFC Angio Hoechst NucArea IC50/EC50” value in [7] was above 10 µM. Moreover, the “Basal_Viability ATP Colo 320 IC50/EC50” value in [8] (assay number 27, concentration response) was above 20 µM. Further, the “VEGF_ADSC\ECFC Angio CD31 TubeArea IC50/EC50” value in experiment [9] is on record as above 10 µM. The “Basal_Viability ATP SNU-C1 IC50/EC50” value in experiment [10] (assay number 30, concentration response) is on record as above 20 µM.

As to `ClC1=C(Cl)C2(Cl)C(CBr)CC1(Cl)C2(Cl)Cl` (stereo not drawn) [NCGC00166203-02], in experiment [1] (basal), the “IC50/EC50, Basal_Viability ATP RKO (assay number 29)” value was above 20 µM. Also, the “IC50/EC50, GSK3b inh pretreated_Viability ATP HCT116 (assay number 26)” value in [2] (GSK3b inh pretreated) is reported as above 20 µM. Further, the “IC50/EC50, Basal_Viability ATP DLD-1 (assay number 23)” value in experiment [3] (basal) was above 20 µM. The “IC50/EC50, Basal_Viability ATP HCT116 (assay number 25)” value in experiment [4] is above 20 µM. In addition, the “IC50/EC50, Basal_Viability ATP HT-29 (assay number 28)” value in experiment [5] (basal) was above 20 µM. Moreover, the “IC50/EC50, Basal_Viability ATP SW480 (assay number 24)” value in [6] (basal) was above 20 µM. Besides, the “IC50/EC50, VEGF_ADSC\ECFC Angio Hoechst NucArea (assay number 3)” value in experiment [7] is given as 9.9697 µM. Also, in experiment [8] (basal), the “IC50/EC50, Basal_Viability ATP Colo 320 (assay number 27)” value is above 20 µM. The “IC50/EC50, VEGF_ADSC\ECFC Angio CD31 TubeArea (assay number 2)” value in experiment [9] is above 10 µM. In experiment [10] (basal), the “IC50/EC50, Basal_Viability ATP SNU-C1 (assay number 30)” value is recorded as above 20 µM.
